Source: PubChem BioAssay (NCI)
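How tested: cells in 96-well plates exposed to compound for 48 hours at five concentrations. At the GI50, growth is halved. TGI denotes the concentration required for complete inhibition of growth.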

Experiments:
Experiment in all cases: NCI anticancer screen, dose series, 48 h
UO-31 renal = system: UO-31 renal
LOX IMVI melanoma = system: LOX IMVI melanoma
SNB-75 CNS = system: SNB-75 CNS
NCI/ADR-RES ovarian = system: NCI/ADR-RES ovarian
SK-MEL-5 melanoma = system: SK-MEL-5 melanoma
SR leukemia = system: SR leukemia
MOLT-4 leukemia = system: MOLT-4 leukemia
TK-10 renal = system: TK-10 renal
RPMI-8226 leukemia = system: RPMI-8226 leukemia
SK-MEL-2 melanoma = system: SK-MEL-2 melanoma
K-562 leukemia = system: K-562 leukemia
786-0 renal = system: 786-0 renal
SK-MEL-28 melanoma = system: SK-MEL-28 melanoma
U251 CNS = system: U251 CNS
M14 melanoma = system: M14 melanoma
SW-620 colon = system: SW-620 colon
UACC-62 melanoma = system: UACC-62 melanoma
MDA-MB-231 breast = system: MDA-MB-231 breast
HL-60(TB) leukemia = system: HL-60(TB) leukemia
RXF 393 renal = system: RXF 393 renal
UACC-257 melanoma = system: UACC-257 melanoma
MDA-MB-435 = system: MDA-MB-435
COLO 205 colon = system: COLO 205 colon
NCI-H522 lung = system: NCI-H522 lung
SF-539 CNS = system: SF-539 CNS
HCT-116 colon = system: HCT-116 colon
MCF7 breast = system: MCF7 breast
CCRF-CEM leukemia = system: CCRF-CEM leukemia
MALME-3M melanoma = system: MALME-3M melanoma
NCI-H460 lung = system: NCI-H460 lung
HCC-2998 colon = system: HCC-2998 colon
HOP-92 NSCLC = system: HOP-92 NSCLC
A498 renal = system: A498 renal

How did the GI50 (UO-31 renal) turn out when `CC1COc2c(N3CCN(C)CC3)c(F)cc3c(=O)c(C(=O)N/N=C/c4cc[nH]c4)cn1c23` (stereo unspecified) was run?
The GI50 was 2710 nM.

What about the TGI (UO-31 renal) of the same compound?
Its TGI is greater than 100000 nM.

And the GI50 (LOX IMVI melanoma)?
The GI50 was 715 nM.

What about the TGI (LOX IMVI melanoma) of the same compound?
The TGI was 2070 nM.

What about the GI50 (SNB-75 CNS) of the same compound?
Its GI50 is 1480 nM.

And the TGI (SNB-75 CNS)?
Its TGI is 3470 nM.

What about the GI50 (NCI/ADR-RES ovarian) of the same compound?
Its GI50 is greater than 100000 nM.

What about the TGI (NCI/ADR-RES ovarian) of the same compound?
Its TGI is greater than 100000 nM.

And the GI50 (SK-MEL-5 melanoma)?
Its GI50 is 1400 nM.

And the TGI (SK-MEL-5 melanoma)?
Its TGI is 2710 nM.

What about the GI50 (SR leukemia) of the same compound?
Its GI50 is 841 nM.

What about the TGI (SR leukemia) of the same compound?
Its TGI is 3160 nM.

And the GI50 (MOLT-4 leukemia)?
Its GI50 is 502 nM.

What about the TGI (MOLT-4 leukemia) of the same compound?
Its TGI is 2100 nM.

And the GI50 (TK-10 renal)?
The GI50 was 5400 nM.

What about the TGI (TK-10 renal) of the same compound?
Its TGI is 96100 nM.

And the GI50 (RPMI-8226 leukemia)?
The GI50 was 2190 nM.

And the TGI (RPMI-8226 leukemia)?
The TGI was 4580 nM.

And the GI50 (SK-MEL-2 melanoma)?
Its GI50 is 1570 nM.

And the TGI (SK-MEL-2 melanoma)?
Its TGI is 3010 nM.

What about the GI50 (K-562 leukemia) of the same compound?
Its GI50 is 699 nM.

What about the TGI (K-562 leukemia) of the same compound?
The TGI was 2350 nM.

And the GI50 (786-0 renal)?
The GI50 was 1420 nM.

And the TGI (786-0 renal)?
The TGI was 2850 nM.

What about the GI50 (SK-MEL-28 melanoma) of the same compound?
Its GI50 is 1470 nM.

What about the TGI (SK-MEL-28 melanoma) of the same compound?
Its TGI is 2830 nM.

What about the GI50 (U251 CNS) of the same compound?
Its GI50 is 614 nM.

And the TGI (U251 CNS)?
Its TGI is 1980 nM.

What about the GI50 (M14 melanoma) of the same compound?
The GI50 was 1670 nM.

And the TGI (M14 melanoma)?
Its TGI is 3120 nM.

What about the GI50 (SW-620 colon) of the same compound?
Its GI50 is 1300 nM.

What about the TGI (SW-620 colon) of the same compound?
Its TGI is 2620 nM.

And the GI50 (UACC-62 melanoma)?
Its GI50 is 1700 nM.

And the TGI (UACC-62 melanoma)?
The TGI was 3160 nM.

And the GI50 (MDA-MB-231 breast)?
The GI50 was 1480 nM.

And the TGI (MDA-MB-231 breast)?
The TGI was 3000 nM.

What about the GI50 (HL-60(TB) leukemia) of the same compound?
Its GI50 is 674 nM.

What about the TGI (HL-60(TB) leukemia) of the same compound?
Its TGI is 2590 nM.

And the GI50 (RXF 393 renal)?
Its GI50 is 1060 nM.

And the TGI (RXF 393 renal)?
Its TGI is 2350 nM.

And the GI50 (UACC-257 melanoma)?
Its GI50 is 1640 nM.

And the TGI (UACC-257 melanoma)?
Its TGI is 3120 nM.

What about the GI50 (MDA-MB-435) of the same compound?
The GI50 was 1520 nM.

What about the TGI (MDA-MB-435) of the same compound?
The TGI was 2910 nM.

And the GI50 (COLO 205 colon)?
Its GI50 is 1270 nM.

And the TGI (COLO 205 colon)?
Its TGI is 2600 nM.

What about the GI50 (NCI-H522 lung) of the same compound?
Its GI50 is 1240 nM.

And the TGI (NCI-H522 lung)?
Its TGI is 2640 nM.

What about the GI50 (SF-539 CNS) of the same compound?
The GI50 was 1280 nM.

What about the TGI (SF-539 CNS) of the same compound?
Its TGI is 2610 nM.

What about the GI50 (HCT-116 colon) of the same compound?
The GI50 was 712 nM.

And the TGI (HCT-116 colon)?
The TGI was 2000 nM.

What about the GI50 (MCF7 breast) of the same compound?
The GI50 was 417 nM.

And the TGI (MCF7 breast)?
Its TGI is 1650 nM.

What about the GI50 (CCRF-CEM leukemia) of the same compound?
The GI50 was 959 nM.

What about the TGI (CCRF-CEM leukemia) of the same compound?
The TGI was 2790 nM.

And the GI50 (MALME-3M melanoma)?
Its GI50 is 1040 nM.

What about the TGI (MALME-3M melanoma) of the same compound?
The TGI was 2570 nM.

And the GI50 (NCI-H460 lung)?
Its GI50 is 767 nM.

What about the TGI (NCI-H460 lung) of the same compound?
Its TGI is 2080 nM.

And the GI50 (HCC-2998 colon)?
Its GI50 is 518 nM.

What about the TGI (HCC-2998 colon) of the same compound?
The TGI was 1890 nM.

What about the GI50 (HOP-92 NSCLC) of the same compound?
Its GI50 is 497 nM.

And the TGI (HOP-92 NSCLC)?
The TGI was 36000 nM.

And the GI50 (A498 renal)?
The GI50 was 2220 nM.

What about the TGI (A498 renal) of the same compound?
The TGI was greater than 100000 nM.
